# Laboratory results from US20210162091A1, “WASH-DURABLE, FLUID ABSORBENT SUBSTRATE WITH ANTIMICROBIAL PROPERTIES AND/OR IMPROVED WASHABILITY, AND HYGIENE PRODUCT SUCH AS REUSABLE SANITARY NAPKIN” (Livinguard AG, priority 2015, published 2021).
# What was measured:
# [1] = test system: bacteria (Escherichia coli, Staphylococcus aureus, Pseudomonas aeruginosa, and Salmonella enterica); experiment: Antimicrobial performance against bacteria (AATCC 100:2012, summary in words); assay type: cell-based; settings: single agent, 6% o.w.f. chemical
# Method: (§1) All microbiological tests were performed with cultures of the bacteria Escherichia coli American Type Culture Collection (ATCC) 25922, Staphylococcus aureus ATCC 6538, Pseudomonas aeruginosa ATCC 15442, Salmonella enterica ATCC 10708, and of the fungi Candida albicans ATCC 10231, and Aspergillus niger ATCC 16404.
# [2] = test system: fungi (Candida albicans and Aspergillus niger); experiment: Antimicrobial performance against fungi (AATCC 100:2012, summary in words); assay type: cell-based; settings: single agent, 6% o.w.f. chemical
# Method: as §1
Compound,Efficiency for killing bacteria ([1]; adhered to polyester),Efficiency for killing fungi ([2]; adhered to polyester),Efficiency for killing bacteria ([1]; adhered to cotton),Efficiency for killing fungi ([2]; adhered to cotton)
CCCCCCCCCCCCCCCCCC[N+](C)(C)CCC[Si](OC)(OC)OC [dimethyloctadecyl[3-(trimethoxysilyl)propyl] ammonium chloride],about equally efficient in killing bacteria,not efficient for killing fungi,–,–
"CCCC1COC(Cn2cncn2)(c2ccc(Cl)cc2Cl)O1 (stereo not drawn) [propiconazole, reference compound]",about as efficient against bacteria as silver and quaternary ammonium organosilane,works well against fungi,not efficient for killing bacteria,efficient for killing fungi
polyhexamethylene biguanide [PHMB],–,–,about equally efficient for killing bacteria,perform poorly
silver,about equally efficient in killing bacteria,not efficient for killing fungi,about equally efficient for killing bacteria,perform poorly
